Measurements reported in patent publication US20250073311A1, “DOSAGE REGIME” (ZEALAND PHARMA A/S, priority 2021, published 2025).
Values joined by “and” are separate entries in the source; they are usually repeats but may differ in a detail not shown here. Equal entries are not always repeated. Where two headings read alike, the source gives them in different places. Numbered stars: 1 amine (or outer) side, 2 acyl side, 3 side chain; on linkers, the order of the positions; unused ones are H or OH. Square brackets hold non-standard residues; d marks the D form. Side chains are listed from the residue outwards. Peptide text beside a SMILES is read from it. * marks the point of attachment. C18 diacid = O=C(O)CCCCCCCCCCCCCCCCC(=O)*; γGlu = O=C(O)[C@H](CCC(=O)[*:2])N[*:1]; Aib = CC(C)(N)C(=O)O

Columns and labels:
healthy human subjects [1] = experiment: Standard meal test (lunch and dinner), Phase 1b trial; assay type: in vivo
From the text: (§1) Reduction in appetite is reflected in the reduction in food intake measured by mixed meal test for breakfast (Table 11) and by measuring caloric intake at standard meals for lunch and dinner (Table 12).
Pre-defined lunch and dinner meals were served at baseline (on Day -1) and after 4th dose (Day 23). Consumption was supervised and leftovers were weighed.

[2] = Plasma half-life in single ascending dose Phase 1a trial (LC-MS/MS); assay type: in vivo; conditions: human
Method: Blood sampling for determining Cpd 18 plasma concentrations were performed during the phase la study (outlined in Example 2) at scheduled timepoints. Concentration of Cpd 18 in plasma was measured using a validated LC-MS/MS assay. Pharmacokinetic (PK) endpoints for Cpd 18 were derived from the individual concentration profiles (with hour as time unit). For PK analysis, Cpd 18 concentrations were supplied by the analytical laboratory in nmol/L. Mean measured concentrations per dose level are shown in […].
For determination of λz a linear regression was performed using the logarithm to plasma Cpd. 18 concentration as the response variable and at least three valid concentration measurements of the terminal end period after Cmax. (The exact number of data points depends on the best goodness-of-fit). Cmax is not included in the calculation for λz as this point may be affected by absorption still taking place from the injection site.
The terminal elimination half-life of the plasma Cpd. 18 profile (t½) was calculated by the following formula: […]

[3] = Body weight in Phase 1b trial; assay type: in vivo, human; conditions: four once weekly s.c. doses, 1.0 mg to 3.5/6.0 mg, healthy subjects, FIG. 3
healthy human subjects [4] = experiment: Mixed meal test (breakfast), Phase 1b trial; assay type: in vivo
Method: as §1
The Mixed Meal Test (MMT) was performed at baseline, at 24 hours, after the first dosing (Day 2) and after the fourth dosing (Day 23). The meal consisted of a fixed nutrient content and the exact initial amount of nutrients were weighed by kitchen staff on a lab scale using the method of weighed intake. Consumption was supervised and leftovers were weighed and recorded as percentage of meal. Adjustment of leftovers on Day 2 will be performed for Day 23 and differences in weight will be calculated in carbohydrates.

healthy human subjects [5] = experiment: Multiple ascending dose Phase 1b trial, adverse events; assay type: in vivo; conditions: 7 subjects
Method: A multiple ascending dose Phase 1b trial was conducted for Cpd. 18 investigating the safety of multiple subcutaneous injections of various ascending doses in healthy human subjects. The trial was a Randomized, Double-blind, Placebo-controlled, Multi Ascending Dose Trial assessing Safety, Tolerability, Pharmacokinetics and Pharmacodynamics of Multiple Subcutaneous Dose of Cpd. 18 in Healthy human Subjects.
Four cohorts were dosed with four once weekly subcutaneous administrations. In each cohort, consisting of 10 subjects each, subjects were randomized to either placebo (n=3) or to the following active multiple ascending dose levels (n=7): 4 weekly dose injections of 1.0 mg; 4 weekly dose injections of 2.25 mg; 4 weekly dose injections of 3.5 mg and 1 weekly dose injections of 3.5 mg followed by 3 weekly dose injections of 6.0 mg.
Adverse events (AE) were captured by asking open ended and non-leading questions according to the following wording in the protocol:
• All events meeting the definition of an AE must be collected and reported from the first trial-related activity after the subject has signed the informed consent and until the end of the post-treatment follow-up period. At each contact with the site (Visit or telephone) the subject must be asked about AEs. All AEs, either observed by the Investigator or reported by the subject, must be recorded by the Investigator and evaluated. • The Investigator should record the diagnosis, if possible. If no diagnosis can be made the Investigator should record each sign and symptom as individual AEs. • All AEs must be recorded by the Investigator. One single Adverse Event Form must be used per AE from start to resolution. For Serious Adverse Events (SAE), the Serious Adverse Event Form must also be completed.”
The safety data (incidence/number of subjects) for subjects dosed 4×1.0 mg to 1×3.5 mg plus 3×6.0 mg as well as placebo is shown in Table 10 below.

[6] = 1 × 3.5 mg plus 3 × 6.0 mg weekly s.c.

## CC[C@H](C)[C@H](NC(=O)[C@H](Cc1ccccc1)NC(=O)[C@H](CC(=O)O)NC(=O)[C@H](CCCNC(=N)N)NC(=O)[C@H](C)NC(=O)[C@H](C)NC(=O)[C@H](CCC(N)=O)NC(=O)[C@H](CCCCNC(=O)CC[C@H](NC(=O)CCCCCCCCCCCCCCCCC(=O)O)C(=O)O)NC(=O)[C@H](CC(=O)O)NC(=O)[C@H](CC(C)C)NC(=O)[C@@H](NC(=O)[C@@H](NC(=O)[C@H](C)NC(=O)[C@H](CC(C)C)NC(=O)[C@H](CCC(=O)O)NC(=O)[C@H](CO)NC(=O)[C@@H](NC(=O)[C@H](Cc1ccccc1)NC(=O)[C@H](CO)NC(=O)CNC(=O)[C@H](CCC(=O)O)NC(=O)C(C)(C)NC(=O)[C@@H](N)Cc1c[nH]cn1)[C@@H](C)O)[C@@H](C)O)[C@@H](C)CC)C(=O)N[C@@H](C)C(=O)N[C@@H](Cc1c[nH]c2ccccc12)C(=O)N[C@@H](CC(C)C)C(=O)N[C@H](C(=O)N[C@@H](CCC(N)=O)C(=O)N[C@@H](Cc1c[nH]cn1)C(=O)N[C@@H](CCCCN)C(=O)N[C@H](C(=O)N[C@H](C(=O)N[C@@H](CC(=O)O)C(=O)O)[C@@H](C)O)[C@@H](C)CC)[C@@H](C)CC [Compound 18] (H-H[Aib]EGSFTSELATILDK([γGlu-C18 diacid])QAARDFIAWLIQHKITD-OH)
Healthy human subjects [1]; Dinner, After 4th dose (Day 23), cohort 1.0 mg weekly
  Mean food consumption: 682 kcal
Healthy human subjects [1]; Dinner, After 4th dose (Day 23), cohort 2.25 mg weekly
  Mean food consumption: 585 kcal
Healthy human subjects [1]; Dinner, After 4th dose (Day 23), cohort 3.5 mg weekly
  Mean food consumption: 594 kcal
Healthy human subjects [1]; Dinner, After 4th dose (Day 23), cohort 3.5/6.0 mg weekly
  Mean food consumption: 423 kcal
Healthy human subjects [1]; Dinner, Baseline (Day -1), cohort 1.0 mg
  Mean food consumption: 694 kcal
Healthy human subjects [1]; Dinner, Baseline (Day -1), cohort 2.25 mg
  Mean food consumption: 679 kcal
Healthy human subjects [1]; Dinner, Baseline (Day -1), cohort 3.5 mg
  Mean food consumption: 695 kcal
Healthy human subjects [1]; Dinner, Baseline (Day -1), cohort 3.5/6.0 mg
  Mean food consumption: 694 kcal
Healthy human subjects [1]; Lunch, After 4th dose (Day 23), cohort 1.0 mg weekly
  Mean food consumption: 705 kcal
Healthy human subjects [1]; Lunch, After 4th dose (Day 23), cohort 2.25 mg weekly
  Mean food consumption: 649 kcal
Healthy human subjects [1]; Lunch, After 4th dose (Day 23), cohort 3.5 mg weekly
  Mean food consumption: 647 kcal
Healthy human subjects [1]; Lunch, After 4th dose (Day 23), cohort 3.5/6.0 mg weekly
  Mean food consumption: 403 kcal
Healthy human subjects [1]; Lunch, Baseline (Day -1), cohort 1.0 mg
  Mean food consumption: 701 kcal
Healthy human subjects [1]; Lunch, Baseline (Day -1), cohort 2.25 mg
  Mean food consumption: 638 kcal
Healthy human subjects [1]; Lunch, Baseline (Day -1), cohort 3.5 mg
  Mean food consumption: 706 kcal
Healthy human subjects [1]; Lunch, Baseline (Day -1), cohort 3.5/6.0 mg
  Mean food consumption: 671 kcal
[2]; sc, single s.c. dose 0.02 mg, healthy subjects, N 6, read-out: t1/2 Mean (converted)
  half-life: 140 h
[2]; sc, single s.c. dose 0.07 mg, healthy subjects, N 6, read-out: t1/2 Mean (converted)
  half-life: 126 h
[2]; sc, single s.c. dose 0.2 mg, healthy subjects, N 6, read-out: t1/2 Mean (converted)
  half-life: 129 h
[2]; sc, single s.c. dose 0.6 mg, healthy subjects, N 6, read-out: t1/2 Mean (converted)
  half-life: 110 h
[2]; sc, single s.c. dose 1.5 mg, healthy subjects, N 6, read-out: t1/2 Mean (converted)
  half-life: 120 h
[2]; sc, single s.c. dose 3 mg, healthy subjects, N 6, read-out: t1/2 Mean (converted)
  half-life: 120 h
[2]; sc, single s.c. dose 6 mg, healthy subjects, N 6, read-out: t1/2 Mean (converted)
  half-life: 112 h
[2]; sc, single s.c. dose 7.5 mg, healthy subjects, N 6, read-out: t1/2 Mean (converted)
  half-life: 135 h
[2]; subcutaneous, following a single dose, across dose groups, read-out: calculated mean half-life
  half-life: 110 to 135 h
[3]
  Body weight: dose dependent reduction in body weight
Healthy human subjects [4]; After 1st dose (Day 2), cohort 1.0 mg
  Mean food consumption: 99.0%
Healthy human subjects [4]; After 1st dose (Day 2), cohort 2.25 mg
  Mean food consumption: 95.4%
Healthy human subjects [4]; After 1st dose (Day 2), cohort 3.5 mg
  Mean food consumption: 99.2% and 96.2%
Healthy human subjects [4]; After 1st dose (Day 2), cohort 3.5/6.0 mg
  Mean food consumption: 87.5%
Healthy human subjects [4]; After 4th dose (Day 23), cohort 1.0 mg weekly
  Mean food consumption: 98.6%
Healthy human subjects [4]; After 4th dose (Day 23), cohort 2.25 mg weekly
  Mean food consumption: 95.8%
Healthy human subjects [4]; After 4th dose (Day 23), cohort 3.5 mg weekly
  Mean food consumption: 93.2%
Healthy human subjects [4]; After 4th dose (Day 23), cohort 3.5/6.0 mg weekly
  Mean food consumption: 62.5%
Healthy human subjects [4]; Baseline, cohort 1.0 mg
  Mean food consumption: 99.2%
Healthy human subjects [4]; Baseline, cohort 2.25 mg
  Mean food consumption: 100%
Healthy human subjects [4]; Baseline, cohort 3.5 mg
  Mean food consumption: 100%
Healthy human subjects [4]; Baseline, cohort 3.5/6.0 mg
  Mean food consumption: 95.8%
Healthy human subjects [5]; [6]
  Subjects experiencing decreased appetite: 6/7 and 6
  Subjects experiencing nausea: 4
  Subjects experiencing vomiting: 3
Healthy human subjects [5]; 4 weekly s.c. doses of 1.0 mg
  Subjects experiencing decreased appetite: 0
  Subjects experiencing nausea: 1
  Subjects experiencing vomiting: 0
Healthy human subjects [5]; 4 weekly s.c. doses of 2.25 mg
  Subjects experiencing decreased appetite: 3/7 and 3
  Subjects experiencing nausea: 1
  Subjects experiencing vomiting: 0
Healthy human subjects [5]; 4 weekly s.c. doses of 3.5 mg
  Subjects experiencing decreased appetite: 2/7 and 2
  Subjects experiencing nausea: 0
  Subjects experiencing vomiting: 0
